Laboratory results published in the NIST ThermoML archive (doi:10.1016/j.tca.2013.08.016).

Columns and labels:
[1] = refractive index (Na D-line) (dimensionless); details: 101.33 kPa, Liquid, Standard Abbe refractometry
[2] = refractive index (Na D-line) (dimensionless); φn = volume fraction of the nth substance listed; details: 101 kPa, Liquid, Standard Abbe refractometry

CCCC[n+]1cccc(C)c1.F[B-](F)(F)F [1-butyl-3-methylpyridinium tetrafluoroborate]
[1]
Details	refractive index
293.15 K	1.45248
303.15 K	1.44976
313.15 K	1.44706
323.15 K	1.44425

CCCC[n+]1cccc(C)c1.F[B-](F)(F)F [1-butyl-3-methylpyridinium tetrafluoroborate] + CCO
[2]
Details	refractive index
293.15 K, φ1 = 0.0895	1.3713
293.15 K, φ1 = 0.1467	1.3773
293.15 K, φ1 = 0.2062	1.38325
293.15 K, φ1 = 0.2725	1.38979
293.15 K, φ1 = 0.4637	1.4075
293.15 K, φ1 = 0.5588	1.41595
293.15 K, φ1 = 0.6583	1.4245
293.15 K, φ1 = 0.6935	1.42757
293.15 K, φ1 = 0.8285	1.43878
293.15 K, φ1 = 0.883	1.44311
293.15 K, φ1 = 0.928	1.4467
293.15 K, φ1 = 0.9641	1.44963
293.15 K, φ1 = 1	1.45248
303.15 K, φ1 = 0.0891	1.3672
303.15 K, φ1 = 0.1461	1.37333
303.15 K, φ1 = 0.2054	1.3794
303.15 K, φ1 = 0.2716	1.38602
303.15 K, φ1 = 0.4626	1.404
303.15 K, φ1 = 0.5577	1.41257
303.15 K, φ1 = 0.6572	1.42134
303.15 K, φ1 = 0.6925	1.42444
303.15 K, φ1 = 0.8278	1.43584
303.15 K, φ1 = 0.8825	1.44031
303.15 K, φ1 = 0.9277	1.4439
303.15 K, φ1 = 0.964	1.4469
303.15 K, φ1 = 1	1.44976
313.15 K, φ1 = 0.0887	1.36314
313.15 K, φ1 = 0.1477	1.36964
313.15 K, φ1 = 0.2047	1.37558
313.15 K, φ1 = 0.2706	1.3823
313.15 K, φ1 = 0.4614	1.40055
313.15 K, φ1 = 0.5565	1.40924
313.15 K, φ1 = 0.6561	1.4182
313.15 K, φ1 = 0.6914	1.42134
313.15 K, φ1 = 0.8271	1.43292
313.15 K, φ1 = 0.882	1.43752
313.15 K, φ1 = 0.9273	1.44114
313.15 K, φ1 = 0.9638	1.44418
313.15 K, φ1 = 1	1.44706
323.15 K, φ1 = 0.0883	1.35913
323.15 K, φ1 = 0.147	1.36572
323.15 K, φ1 = 0.2037	1.37173
323.15 K, φ1 = 0.2695	1.37856
323.15 K, φ1 = 0.4599	1.39714
323.15 K, φ1 = 0.555	1.40599
323.15 K, φ1 = 0.6548	1.41504
323.15 K, φ1 = 0.6902	1.41823
323.15 K, φ1 = 0.8263	1.42988
323.15 K, φ1 = 0.8814	1.43448
323.15 K, φ1 = 0.9269	1.43827
323.15 K, φ1 = 0.9636	1.44135
323.15 K, φ1 = 1	1.44425

CCCC[n+]1cccc(C)c1.F[B-](F)(F)F [1-butyl-3-methylpyridinium tetrafluoroborate] + CO
[2]
Details	refractive index
293.15 K, φ1 = 0.0958	1.34245
293.15 K, φ1 = 0.2025	1.35728
293.15 K, φ1 = 0.2756	1.36702
293.15 K, φ1 = 0.3528	1.37693
293.15 K, φ1 = 0.4508	1.38917
293.15 K, φ1 = 0.5501	1.40126
293.15 K, φ1 = 0.6751	1.416
293.15 K, φ1 = 0.7686	1.42667
293.15 K, φ1 = 0.828	1.43333
293.15 K, φ1 = 0.8763	1.43873
293.15 K, φ1 = 0.9159	1.44307
293.15 K, φ1 = 0.9334	1.445
293.15 K, φ1 = 0.9732	1.44949
293.15 K, φ1 = 1	1.45248
303.15 K, φ1 = 0.0958	1.33885
303.15 K, φ1 = 0.2025	1.35407
303.15 K, φ1 = 0.2756	1.364
303.15 K, φ1 = 0.3528	1.37406
303.15 K, φ1 = 0.4508	1.38641
303.15 K, φ1 = 0.5501	1.39855
303.15 K, φ1 = 0.6751	1.41337
303.15 K, φ1 = 0.7686	1.42402
303.15 K, φ1 = 0.828	1.43069
303.15 K, φ1 = 0.8763	1.43606
303.15 K, φ1 = 0.9159	1.44042
303.15 K, φ1 = 0.9334	1.44233
303.15 K, φ1 = 0.9732	1.4468
303.15 K, φ1 = 1	1.44976
313.15 K, φ1 = 0.0948	1.33503
313.15 K, φ1 = 0.2006	1.3505
313.15 K, φ1 = 0.2756	1.36083
313.15 K, φ1 = 0.3501	1.37069
313.15 K, φ1 = 0.4478	1.38319
313.15 K, φ1 = 0.5471	1.39542
313.15 K, φ1 = 0.6725	1.41032
313.15 K, φ1 = 0.7665	1.4211
313.15 K, φ1 = 0.8262	1.42784
313.15 K, φ1 = 0.875	1.4333
313.15 K, φ1 = 0.915	1.43765
313.15 K, φ1 = 0.9327	1.43961
313.15 K, φ1 = 0.9729	1.44409
313.15 K, φ1 = 1	1.44706
323.15 K, φ1 = 0.0942	1.332
323.15 K, φ1 = 0.1995	1.34774
323.15 K, φ1 = 0.2718	1.35784
323.15 K, φ1 = 0.3485	1.3681
323.15 K, φ1 = 0.4461	1.38056
323.15 K, φ1 = 0.5454	1.39283
323.15 K, φ1 = 0.6709	1.40773
323.15 K, φ1 = 0.7652	1.41853
323.15 K, φ1 = 0.8253	1.42521
323.15 K, φ1 = 0.8742	1.43058
323.15 K, φ1 = 0.9144	1.43492
323.15 K, φ1 = 0.9322	1.43687
323.15 K, φ1 = 0.9727	1.44133
323.15 K, φ1 = 1	1.44425

CCCC[n+]1ccc(C)cc1.F[B-](F)(F)F [1-butyl-4-methylpyridinium tetrafluoroborate]
[1]
Details	refractive index
293.15 K	1.45386
303.15 K	1.45114
313.15 K	1.44841
323.15 K	1.44571

CCCC[n+]1ccccc1.F[B-](F)(F)F [1-butylpyridinium tetrafluoroborate]
[1]
Details	refractive index
293.15 K	1.44719
303.15 K	1.44454
313.15 K	1.4419
323.15 K	1.43924
